# Columns and labels:
# Planktothrix agardhii [1] = conditions: cited from earlier work
# Microcystis [2] = conditions: in vivo
# Planktothrix agardhii [3] = conditions: equivalent of 2.5 mg/L in 1140 L, 9500 cm^2
# Microcystis [4] = conditions: cited from earlier work
# [5] = Buoyancy by weighing-pan set-up (FIG. 2); assay type: physicochemical
# Text: FIG. 2 schematically illustrates an experimental set-up for testing the buoyancy of the herein disclosed compositions, including (1) a balance; (2) a measuring pod with an aperture; (3) an underneath hook to measure weight; (4) a beaker filled with water simulating an aquatic system; (5) a weighing-pan.
# In order to test the buoyancy of the herein disclosed compositions, an experimental set-up, schematically illustrated in FIG. 2, was applied. In this set-up, a laboratory balance 1 (0-2,000±0.1 g) was positioned to measure the weight of a composition placed on a weighing-pan 5 immersed in a beaker filled with water 4. If the composition is non-buoyant (AI without the coating material) an increase in weight is anticipated (‘negative control’). Oppositely, if the composition is buoyant, the weight is expected to remain essentially unchanged.
# [6] = Buoyancy of sodium percarbonate in 15 ml vials; assay type: physicochemical; conditions: 5 grams, FIG. 5
# [7] = Buoyancy and resurfacing of coated copper sulfate compositions in water (vials, glasses; visual); assay type: physicochemical; conditions: granular copper sulfate with different % (w/w) coating placed in water, FIG. 1
# [8] = Sedimentation analysis in 10-liter cylinders with sediment; assay type: physicochemical; conditions: 10-liter cylinder, after one hour, FIG. 6
# Method: Two 10-liter cylinders were filled with water and supplemented with sediment. To one cylinder, granules of copper sulfate pentahydrate (mimicking standard treatment) were added, while a buoyant copper-based composition was added to the other cylinder.
# [9] = tested on: algal bloom (cyanobacterial biomass); test: Seasonal treatment of algal bloom at ~1.04 km^2 irrigation pond; assay type: in vivo
# Method: As detailed in FIG. 9, biomass and total copper concentrations were measured during the first two days to assess efficacy and minimal required AI concentrations. Cyanobacterial biomass was measured using a YSI Exo-3 probe that was supplied with a GPS. […] Water samples for total copper concentrations, as well as estimation of particle time travel on the water, as well as final coverage, was done with a kayak and by using a laser distance/range measurer. Total copper concentrations were measured with a YSI 9300 photometer in accordance with manufacturer instructions.
compound,measurement,setting,value
"OO [H2O2, hydrogen peroxide]",lowest H2O2 concentration that sufficed to significantly reduce the P. agardhii population,"Planktothrix agardhii [1]; Plexiglas containers, 2*10^6 cells/mL",2.5 mg/L
same,photosynthetic performance and cell counts of zooplankton population,Planktothrix agardhii [1]; at 2.5 mg/L H2O2,severely reduced
same,time until cyanobacteria population started to recover,Planktothrix agardhii [1]; natural water body,6-7 weeks
same,H2O2 amount per surface area at which Microcystis decreased,Microcystis [2],≥ 2.44 gr/m^2
same,lowest effective H2O2 amount per surface area,Planktothrix agardhii [3],2.85 gr/m^2
same,H2O2 dose at which abundance of Microcystis decreased,Microcystis [4]; 150 L mesocosm,≥ 4 mg/L
same,cell density of Microcystis,Microcystis [4]; H2O2 dose 2 mg/L,did not decrease
same,time to reappearance of high Microcystis cell density,Microcystis [4]; H2O2 dose of 2 mg/L,11 days
"O=c1nc([O-])n(Cl)c(=O)n1Cl.[Na+] [un-encapsulated NADCC, sodium dichloroisocyanurate]",weight increase on weighing-pan,[5]; 9.5 grams placed on the weighing-pan in water,~5.3 g
"O=C([O-])[O-].O=C([O-])[O-].OO.OO.OO.[Na+].[Na+].[Na+].[Na+] [uncoated sodium percarbonate, sodium percarbonate]",buoyancy in water,[6],sank immediately
copper sulfate pentahydrate,"buoyancy in water (floating, sinking, resurfacing)",[7]; listed as non-coated active ingredient (0.0% (w/w)),sank immediately to the bottom
same,"buoyancy in water (floating, sinking, resurfacing)",[7]; listed as raw copper salt (“0% coating”),sunk immediately after dispersion
same,weight increase on weighing-pan,"[5]; samples of 100 grams, set-up of FIG. 2",50%±3%
same,behaviour in water column with sediment,[8],immediately sank into the sediment
same,average chlorophyll-a concentration,"[9]; 2015, 6 aerial applications, total of 8,000 kg",100-200 μg chlorophyll-a/L
same,average cyanobacterial concentration (chlorophyll-a),"[9]; 2016, 7 aerial applications of 2000 kg",60 to 80 µg/L

# Reference: patent US11944092B2, “Compositions for controlling phytoplankton contamination” (BLUEGREEN WATER TECHNOLOGIES LTD., priority 2019, dated 2024)
